The target in test [1] is CRBN/DDB1 (Homo sapiens (Human), UniProt Q96SW2). The test is described as follows: IC50 measurements for binding to CRBN/DDB1 (HTRF). The following applies: His tagged CRBN+DDB, Cy5-labeled Thalidomide probe, one hour. The method, boiled down:
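Serially diluted compounds compete with a Cy5-labeled thalidomide tracer (60 nM) for His-tagged CRBN-DDB1 (2 nM), detected via anti-6His Tb cryptate (0.4 nM); buffer HEPES pH 7.5 with TCEP, Brij-35, NaCl, BSA. One-hour room-temperature incubation, HTRF signal read, IC50 by four-parameter curve.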
A general note: In TR-FRET formats the signal depends on donor and acceptor labels being close together.

Test [2] has as its target IKZF2 (Homo sapiens (Human), UniProt Q96SW2+Q9UKS7). The test is described as follows: In vitro IKZF2 Western Blot Assay in Jurkat cells. Format: cell-based. To be noted: 24 hrs; for inhibition at 0.001 µM: read-out: IKZF2 degradation (%) @ μM 0.001; for inhibition at 0.01 µM: read-out: IKZF2 degradation (%) @ μM 0.01; for inhibition at 0.1 µM: read-out: IKZF2 degradation (%) @ μM 0.1; for inhibition at 1 µM: read-out: IKZF2 degradation (%) @ μM 1; for inhibition at 10 µM: read-out: IKZF2 degradation (%) @ μM 10. As to the method: In vitro IKZF2 Western Blot Assay Jurkat cells (ATCC, Cat #HB-8065) were cultured in RPMI1640+10% FBS+1% P/S. Cells were treated at desired compound concentrations (0.001, 0.01, 0.1, 1, and 10 μM) and DMSO as vehicle control for 24 hrs. After 24 hr of treatment cells were collected by centrifugation and lysed in RIPA lysis buffer on ice for 10 min. After assessing protein concentration by BCA assay (Pierce), equal amounts of protein for each sample were loaded into 4-12% Bis-Tris gels (Invitrogen), transferred to PVDF membranes and immunoblotted with antibodies against IKZF2 and Actin (Cell Signaling). Membranes were developed on an Odyssey detection system (LI-COR Biosciences) after incubation with IRDye800-labeled goat anti-rabbit IgG and IRDye680-labeled goat anti-mouse IgG (LI-COR) secondary antibodies. Band intensities were quantified using ImageStudio software. Data was further analyzed using XLfit. Percentage of IKZF2 protein degradation: A (>50%); B (30-50%); C(<30%) (Table 2).
In general terms: Immunoblotting shows a protein as a band on a membrane.

Sequence of IKZF2 (Q9UKS7 whole entry): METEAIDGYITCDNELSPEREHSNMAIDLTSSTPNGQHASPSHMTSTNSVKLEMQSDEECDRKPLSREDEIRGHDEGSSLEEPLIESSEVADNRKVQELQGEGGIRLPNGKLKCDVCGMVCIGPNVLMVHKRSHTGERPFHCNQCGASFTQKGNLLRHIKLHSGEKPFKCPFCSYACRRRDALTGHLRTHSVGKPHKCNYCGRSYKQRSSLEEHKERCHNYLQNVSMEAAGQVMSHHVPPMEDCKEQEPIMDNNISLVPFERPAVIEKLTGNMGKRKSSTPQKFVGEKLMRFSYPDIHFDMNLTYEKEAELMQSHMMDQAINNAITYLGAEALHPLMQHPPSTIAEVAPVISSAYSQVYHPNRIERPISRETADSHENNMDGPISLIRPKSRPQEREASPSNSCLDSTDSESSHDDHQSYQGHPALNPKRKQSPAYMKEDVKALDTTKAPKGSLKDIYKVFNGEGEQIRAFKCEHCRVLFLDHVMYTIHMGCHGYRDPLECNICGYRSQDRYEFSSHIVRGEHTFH
Sequence of IKZF2 (Q96SW2 whole entry): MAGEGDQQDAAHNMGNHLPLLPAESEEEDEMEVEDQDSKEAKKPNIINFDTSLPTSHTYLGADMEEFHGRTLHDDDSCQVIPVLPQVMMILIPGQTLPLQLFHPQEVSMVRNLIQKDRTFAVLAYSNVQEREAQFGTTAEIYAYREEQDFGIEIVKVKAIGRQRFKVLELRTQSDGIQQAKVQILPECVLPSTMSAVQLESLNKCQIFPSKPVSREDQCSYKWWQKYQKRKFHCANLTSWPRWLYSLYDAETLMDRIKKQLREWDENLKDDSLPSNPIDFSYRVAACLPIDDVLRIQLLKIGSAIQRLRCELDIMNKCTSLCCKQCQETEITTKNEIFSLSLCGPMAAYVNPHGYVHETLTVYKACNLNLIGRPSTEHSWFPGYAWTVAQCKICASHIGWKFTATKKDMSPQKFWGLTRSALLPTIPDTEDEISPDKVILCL
Sequence of IKZF2 (Q16531 2-1140 partner): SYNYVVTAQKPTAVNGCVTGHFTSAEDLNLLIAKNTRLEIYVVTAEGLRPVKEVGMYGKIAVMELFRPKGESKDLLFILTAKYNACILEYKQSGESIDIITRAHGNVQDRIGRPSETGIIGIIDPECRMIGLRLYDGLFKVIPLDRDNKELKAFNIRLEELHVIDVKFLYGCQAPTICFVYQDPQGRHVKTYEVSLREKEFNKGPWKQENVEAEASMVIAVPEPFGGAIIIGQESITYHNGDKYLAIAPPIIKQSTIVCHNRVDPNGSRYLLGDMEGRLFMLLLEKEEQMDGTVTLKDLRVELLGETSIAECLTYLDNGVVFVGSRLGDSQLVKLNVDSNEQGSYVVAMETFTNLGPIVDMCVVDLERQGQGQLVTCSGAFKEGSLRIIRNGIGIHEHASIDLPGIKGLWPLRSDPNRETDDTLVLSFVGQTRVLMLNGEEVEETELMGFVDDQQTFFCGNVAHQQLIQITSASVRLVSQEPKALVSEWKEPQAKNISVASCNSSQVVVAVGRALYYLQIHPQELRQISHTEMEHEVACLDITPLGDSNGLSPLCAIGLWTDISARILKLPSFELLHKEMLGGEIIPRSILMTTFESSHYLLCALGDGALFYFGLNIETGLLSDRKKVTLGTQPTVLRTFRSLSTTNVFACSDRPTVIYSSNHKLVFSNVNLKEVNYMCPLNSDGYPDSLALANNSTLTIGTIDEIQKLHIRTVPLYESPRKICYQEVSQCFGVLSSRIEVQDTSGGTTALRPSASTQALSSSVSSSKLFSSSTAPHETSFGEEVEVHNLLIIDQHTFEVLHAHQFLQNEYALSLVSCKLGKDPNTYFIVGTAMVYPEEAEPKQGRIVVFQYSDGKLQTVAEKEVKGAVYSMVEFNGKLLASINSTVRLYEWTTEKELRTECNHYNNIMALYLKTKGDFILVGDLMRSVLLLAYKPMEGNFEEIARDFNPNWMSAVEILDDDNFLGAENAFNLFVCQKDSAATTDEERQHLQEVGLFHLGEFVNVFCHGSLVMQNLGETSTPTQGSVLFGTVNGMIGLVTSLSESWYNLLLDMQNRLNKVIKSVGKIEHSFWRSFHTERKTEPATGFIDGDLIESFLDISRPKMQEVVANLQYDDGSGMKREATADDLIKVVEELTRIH
Sequence of CRBN/DDB1 (Q96SW2 whole entry, species assumed): as the sequence (Q96SW2 whole entry) above
Sequence of CRBN/DDB1 (Q16531 whole entry partner, species assumed): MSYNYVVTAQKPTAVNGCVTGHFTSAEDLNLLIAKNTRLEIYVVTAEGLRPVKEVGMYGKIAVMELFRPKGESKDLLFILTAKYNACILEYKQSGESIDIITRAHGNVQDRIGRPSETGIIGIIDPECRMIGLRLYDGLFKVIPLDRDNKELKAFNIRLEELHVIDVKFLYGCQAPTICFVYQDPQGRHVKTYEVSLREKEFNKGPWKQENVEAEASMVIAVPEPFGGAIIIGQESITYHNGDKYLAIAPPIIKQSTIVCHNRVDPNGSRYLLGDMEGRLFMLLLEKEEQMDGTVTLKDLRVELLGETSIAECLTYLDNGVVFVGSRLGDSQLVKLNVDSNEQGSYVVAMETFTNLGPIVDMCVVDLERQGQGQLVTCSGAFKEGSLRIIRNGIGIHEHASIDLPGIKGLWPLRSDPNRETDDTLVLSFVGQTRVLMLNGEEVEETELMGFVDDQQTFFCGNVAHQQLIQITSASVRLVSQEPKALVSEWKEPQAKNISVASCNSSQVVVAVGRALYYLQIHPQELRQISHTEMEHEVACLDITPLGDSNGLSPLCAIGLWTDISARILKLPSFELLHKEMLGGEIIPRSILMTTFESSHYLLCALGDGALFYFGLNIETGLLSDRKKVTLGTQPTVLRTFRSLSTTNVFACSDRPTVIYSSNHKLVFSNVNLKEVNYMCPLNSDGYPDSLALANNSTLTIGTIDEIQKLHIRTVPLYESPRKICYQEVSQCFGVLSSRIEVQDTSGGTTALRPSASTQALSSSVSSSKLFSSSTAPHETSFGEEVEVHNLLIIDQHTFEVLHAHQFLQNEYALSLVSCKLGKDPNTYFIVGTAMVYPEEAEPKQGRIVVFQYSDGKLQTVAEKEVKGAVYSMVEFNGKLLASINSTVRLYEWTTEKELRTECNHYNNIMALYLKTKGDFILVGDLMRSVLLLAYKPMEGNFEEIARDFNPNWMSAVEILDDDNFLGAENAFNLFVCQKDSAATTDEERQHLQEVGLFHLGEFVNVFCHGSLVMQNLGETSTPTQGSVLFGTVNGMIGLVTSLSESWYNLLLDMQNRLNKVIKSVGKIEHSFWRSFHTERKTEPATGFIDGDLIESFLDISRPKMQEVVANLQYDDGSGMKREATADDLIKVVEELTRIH

A word on the IC50: it is the midpoint of a concentration-inhibition curve. The molecule `O=C1CCC(N2Cc3cc(-c4cc(CNCCc5ccccc5C(F)(F)F)cn5ccnc45)ccc3C2=O)C(=O)N1` (stereo not drawn) [Example 43] showed a half-maximal inhibitory concentration (IC50) in test [1] of less than 0.1 µM. For the same molecule, in test [2], the inhibition at 0.001 µM is less than 30%, the inhibition at 0.01 µM was less than 30%, the inhibition at 0.1 µM is less than 30% and the inhibition at 1 µM is less than 30%. Also, in test [2], the inhibition at 10 µM is less than 30%.
Consider `CC(NCc1cc(-c2ccc3c(c2)CN(C2CCC(=O)NC2=O)C3=O)c2nccn2c1)c1ccccc1` (stereo not drawn) [Example 45, 3-(1-oxo-5-(6-(((1-phenylethyl)amino)methyl)imidazo[1,2-a]pyridin-8-yl)isoindolin-2-yl) piperidine-2,6-dione], for which the IC50 in test [1] lay within 0.1 to 0.5 µM. In addition, in test [2], the inhibition at 0.001 µM was 30 to 50%, the inhibition at 0.01 µM is less than 30%, the inhibition at 0.1 µM was less than 30% and the inhibition at 1 µM is greater than 50%. In test [2], the inhibition at 10 µM was less than 30%.
On to `O=C1CCC(N2Cc3cc(-c4cc(CNCCc5c(Cl)cccc5Cl)cn5ccnc45)ccc3C2=O)C(=O)N1` (stereo not drawn) [Example 41, 3-(5-(6-(((2,6-dichlorophenethyl)amino)methyl)imidazo[1,2-a]pyridin-8-yl)-1-oxoisoindolin-2-yl) piperidine-2,6-dione], for which the 50% inhibitory concentration (IC50) in test [1] was in the range of 0.1 to 0.5 µM. In test [2], the inhibition at 0.001 µM was less than 30%, the inhibition at 0.01 µM is less than 30%, the inhibition at 0.1 µM was less than 30% and the inhibition at 1 µM is less than 30%. In test [2], the inhibition at 10 µM was less than 30%.
In test [1], `O=C1CCC(N2Cc3cc(-c4cc(CNCCc5ccc(Cl)cc5Cl)cn5ccnc45)ccc3C2=O)C(=O)N1` (stereo not drawn) [Example 40, 3-(5-(6-(((2,4-dichlorophenethyl)amino)methyl)imidazo[1,2-a]pyridin-8-yl)-1-oxoisoindolin-2-yl) piperidine-2,6-dione] gave an IC50 of 0.1 to 0.5 µM. In addition, in test [2], the inhibition at 0.001 µM was less than 30%, the inhibition at 0.01 µM was less than 30%, the inhibition at 0.1 µM was less than 30% and the inhibition at 1 µM is less than 30%. In test [2], the inhibition at 10 µM was 30 to 50%.
`CC1(C)CCN(Cc2cc(-c3ccc4c(c3)CN(C3CCC(=O)NC3=O)C4=O)c3nccn3c2)CC1` (stereo not drawn) [Example 36, 3-(5-(6-((4,4-dimethylpiperidin-1-yl)methyl)imidazo[1,2-a]pyridin-8-yl)-1-oxoisoindolin-2-yl) piperidine-2,6-dione] had an IC50 in test [1] of 0.1 to 0.5 µM. In test [2], the inhibition at 0.001 µM lay within 30 to 50%, the inhibition at 0.01 µM is 30 to 50%, the inhibition at 0.1 µM is less than 30% and the inhibition at 1 µM is less than 30%. Besides, the inhibition at 10 µM in test [2] was less than 30%.
In the case of `O=C1CCC(N2Cc3cc(-c4cc(CN5CCCC5c5ccccc5)cc5cncn45)ccc3C2=O)C(=O)N1` (stereo not drawn) [Example 26, 3-(1-oxo-5-(7-((2-phenylpyrrolidin-1-yl)methyl)imidazo[1,5-a]pyridin-5-yl)isoindolin-2-yl) piperidine-2,6-dione], the IC50 in test [1] was in the range of 0.1 to 0.5 µM. In test [2], the inhibition at 0.001 µM is less than 30%, the inhibition at 0.01 µM was less than 30%, the inhibition at 0.1 µM was in the range of 30 to 50% and the inhibition at 1 µM was in the range of 30 to 50%. Further, in test [2], the inhibition at 10 µM lay within 30 to 50%.
In the case of `O=C1CCC(N2Cc3cc(-c4cc(CNCCc5c(F)cccc5F)cn5ccnc45)ccc3C2=O)C(=O)N1` (stereo not drawn) [Example 39, 3-(5-(6-(((2,6-difluorophenethyl)amino)methyl)imidazo[1,2-a]pyridin-8-yl)-1-oxoisoindolin-2-yl) piperidine-2,6-dione], the half-inhibitory concentration (IC50) in test [1] is less than 0.1 µM. In addition, in test [2], the inhibition at 0.001 µM was less than 30%, the inhibition at 0.01 µM was less than 30%, the inhibition at 0.1 µM is less than 30% and the inhibition at 1 µM is less than 30%. In addition, in test [2], the inhibition at 10 µM was less than 30%.
`Cc1ccccc1CCNCc1cc(-c2ccc3c(c2)CN(C2CCC(=O)NC2=O)C3=O)c2nccn2c1` (stereo not drawn) [Example 42, 3-(5-(6-(((2-methylphenethyl)amino)methyl)imidazo[1,2-a]pyridin-8-yl)-1-oxoisoindolin-2-yl) piperidine-2,6-dione] had an IC50 in test [1] of less than 0.1 µM. Moreover, in test [2], the inhibition at 0.001 µM was less than 30%, the inhibition at 0.01 µM was less than 30%, the inhibition at 0.1 µM was less than 30% and the inhibition at 1 µM is less than 30%. In addition, the inhibition at 10 µM in test [2] is 30 to 50%.

These data come from patent US20250214991A1 (Oncopia Therapeutics, Inc. d/b/a/ SK Life Science Labs, priority 2022, published 2025).
